From article PMC5988308, “Rhodanine derivatives as potent anti-HIV and anti-HSV microbicides” (PLoS ONE, 2018)
Where two headings read alike, the source gives them in different places.

What was measured:
HSV-1 = HSV-1 plaque reduction assay on Vero cells; format: cell-based; conditions: Human alphaherpesvirus 1, Vero cells, read-out: HSV-1 EC50
Method: (§1) Clinical isolates of HSV-1 and HSV-2 were kindly provided by Prof. M. Pistello, University of Pisa, Italy. HSV-1 and HSV-2 strains were propagated and titrated by plaque assay on Vero cells. A HSV-2 strain with phenotypic resistance to acyclovir was generated by serial passage in the presence of increasing concentrations of acyclovir, as previously described.
(§2) The effect of the rhodanine derivatives on HSV infection was evaluated by plaque reduction assay. Vero cells were pre-plated 24 h in advance in 24-well plates at a density of […]. Increasing concentrations of compounds were mixed with HSV-2 (MOI 0.001 pfu/cell) or HSV-2 acyclovir resistant (MOI 0.001) or HSV-1 (MOI 0.0005) or and incubated for 1 hour at 37°C. The mixtures were subsequently added to the cells, which were then incubated at 37°C for 2 h. The virus inoculum was then removed and the cells washed and overlaid with a medium containing 1.2% methylcellulose (Sigma). After further incubation at 37°C for 24 h (HSV-2 and HSV-2 R Acy) or 48 h (HSV-1), cells were fixed and stained with 0.1% crystal violet in 20% ethanol and viral plaques counted. The effective concentration producing 50% reduction (EC50) and 90% reduction (EC90) in plaque formation was determined using Prism software by comparing drug-treated with wells treated with medium and solvent. The selectivity index (SI) was calculated by dividing the CC50 by the EC50 value.
(§3) All results are presented as the mean values from three independent experiments. The EC50 values for inhibition curves were calculated by regression analysis using the software GraphPad Prism (GraphPad Software, San Diego, California, U.S.A.) by fitting a variable slope-sigmoidal dose–response curve. Acyclovir was purchased from Sigma Aldrich (Milan, Italy).

[1] = Vero cell viability (MTS assay); format: cell-based; conditions: African green monkey
Method: African green monkey fibroblastoid kidney cells (Vero, ATCC CCL-81) were grown as monolayers in Eagle's minimal essential medium (MEM) (Gibco/BRL, Gaithersburg, MD) supplemented with 10% heat inactivated fetal calf serum (FCS) and 1% antibiotic-antimycotic solution (Zell Shield, Minerva Biolabs GmbH, Berlin, Germany).
Cell viability was measured using the MTS [3-(4,5-dimethylthiazol-2-yl)-5-(3-carboxymethoxyphenyl)-2-(4-sulfophenyl)-2H-tetrazolium] assay. Cell cultures were seeded in 96-well plates were incubated with different concentrations of compounds in triplicate under the same experimental conditions described for the antiviral assays. Cell viability was determined using the CellTiter 96 Proliferation Assay Kit (Promega, Madison, WI, USA) according to the manufacturer's instructions. Absorbances were measured using a Microplate Reader (Model 680, BIORAD) at 490 nm. The effect on cell viability at different concentrations of the compound was expressed as a percentage, by comparing absorbances of treated cells with those of cells incubated with culture medium and equal volumes of vehicle.

HSV-2 = HSV-2 plaque reduction assay on Vero cells; format: cell-based; conditions: Vero cells
Method: as §1, §2, §3

[2] = test system: HSV-2 acyclovir resistant; experiment: HSV-2 acyclovir resistant plaque reduction assay on Vero cells; format: cell-based; conditions: Human alphaherpesvirus 2, Vero, read-out: HSV-2 acyclovir resistant EC50
Method: as §1
as §2, with “The virus inoculum was then removed and the cells washed and overlaid with a medium containing 1.2% methylcellulose (Sigma).” left out, “The effective concentration producing 50% reduction (EC50) and 90% reduction (EC90) in plaque formation was determined using Prism software by comparing drug-treated with wells treated with medium and solvent.” left out
as §3, with “Acyclovir was purchased from Sigma Aldrich (Milan, Italy).” left out

HSA = conditions: cited from earlier work
[3] = test system: HIV-1 NL4.3 (CXCR4-tropic strain); experiment: Antiviral activity on TZM-bl cells infected with HIV-1 NL4.3 (CPRG assay); format: cell-based
Method: After 48 h of incubation, the medium was removed and viral infection was quantified using a β-galactosidase (CPRG) assay (Roche). Twenty thousand TZM-bl cells/well were seeded in 96-well plates in complete DMEM supplemented with 30 μg/mL DEAE-dextran (Sigma-Aldrich). […] Vehicle (0.1% dimethyl sulfoxide [DMSO])-treated cells served as a negative control. […] After 2 days, viral infection was quantified using a CPRG assay (Roche). […] To evaluate the cell toxicity of the compounds, the metabolic XTT [2,3-bis-(2-methoxy-4-nitro-5-sulfophenyl)-2H-tetrazolium-5-carboxanilide] test (Sigma-Aldrich) was performed according to the manufacturer’s instructions.

HIV-1 AD8 [4] = experiment: Inhibition of antiviral activity by fetal bovine serum (TZM-bl, AD8); format: cell-based; conditions: FBS 0% to 10%
Method: To evaluate the binding of compounds to plasma proteins also in a cell based assay, the infection with the HIV laboratory strain AD8 was performed in absence or in presence of different concentrations of Fetal Bovine Serum (FBS): 2%, 5% and 10%. The representative compound 2 was pre-incubated at different concentrations ranging from 10 μM to 3.2 nM with 300 TCID50 /mL of AD8 in DMEM supplemented with 50 μg/mL penicillin, 50 μg/mL streptomycin, 30 μg/mL DEAE-dextran and FBS at the concentration described above. Maraviroc was used as control. After an hour the mixture was added to 40.000 TZM-bl cells/well plated in a 96-well plate and after two days the infection was quantified using a CPRG assay (Roche) as previously described.

[5] = test system: HIV-1 AD8 (CCR5-tropic strain); experiment: Antiviral activity on TZM-bl cells infected with HIV-1 AD8 (CPRG assay); format: cell-based; conditions: for alteration of antiviral activity when pre-incubated with serum: HIV-1 laboratory strains
Method: (§4) The human TZM-bl indicator cell line (obtained from the NIH AIDS reagents program, cat. Nr 8129 (www.aidsreagent.org) and maintained at 37°C and 5% CO2 in Dulbecco’s modified Eagle’s medium (DMEM) medium containing 10% fetal bovine serum, 50 μg/mL penicillin, and 50 μg/mL streptomycin. The HIV-1 laboratory strains NL(AD8) (NIH AIDS reagents program, cat.nr 11346), NL4.3 (NIH AIDS reagents program, cat. Nr. 114) were titrated as previously reported. Briefly, serial 5-fold dilutions of each virus were made in quadruplicate wells in 96-well culture plates, in a total volume of 100 μL of growth medium (DMEM), for a total of 8 dilution steps. Freshly trypsinized cells (20,000 cells in 100 μL of growth medium containing 75 μg/mL DEAE-dextran) were added to each well, and the plates were incubated at 37°C in a humidified 5% CO2-95% air environment. After 48 h of incubation, the medium was removed and viral infection was quantified using a β-galactosidase (CPRG) assay (Roche). Twenty thousand TZM-bl cells/well were seeded in 96-well plates in complete DMEM supplemented with 30 μg/mL DEAE-dextran (Sigma-Aldrich). Three hundred times the 50% tissue culture infective dose (TCID50)/mL of each strain was pretreated for 1 h at 37°C with six serial dilutions ([…] to 3.2 nM) of each compound and then added to the cells, as previously described. Vehicle (0.1% dimethyl sulfoxide [DMSO])-treated cells served as a negative control. […] After 2 days, viral infection was quantified using a CPRG assay (Roche). The inhibitory curves were fitted by nonlinear regression, allowing for the calculation of the 50% inhibitory concentration (IC50) using the Prism software. To evaluate the cell toxicity of the compounds, the metabolic XTT [2,3-bis-(2-methoxy-4-nitro-5-sulfophenyl)-2H-tetrazolium-5-carboxanilide] test (Sigma-Aldrich) was performed according to the manufacturer’s instructions.

HIV-1 AD8 [6] = experiment: Inhibition of antiviral activity by purified bovine serum albumin (TZM-bl, AD8); format: cell-based
Method: To confirm the binding of compound 2 to serum albumin, infection was performed in presence of different concentrations of purified bovine serum albumin (BSA, Sigma Aldrich) starting from the concentration that is usually present in FBS serum (35 mg/mL, 1X) and increasing to a five-fold concentration (175 mg/mL) up to a ten-fold concentration (350 mg/mL). […] After one hour, the mixture was added to 40.000 TZM-bl cells/well plated in DMEM supplemented with 50 μg/mL penicillin, 50 μg/mL streptomycin, 30 μg/mL DEAE-dextran and 10% FBS in a 96-well plate. After two days the infection was evaluated through a CPRG assay.

NL4.3 HIV strain = experiment: Antiviral activity in microbicide gel formulation, transwell experiment, TZM-bl cells; format: cell-based, HIV-1; conditions: Human immunodeficiency virus 1, gel at 50%
Method: All the semi-solid formulations were prepared adding at the pre-gel solution reported above hydroxyethyl cellulose (HEC) (1.8% w/v). In all samples, 0.2% v/v propionic acid was added to aqueous solution in order to preserve form bacteria and mold contamination. HEC was dispersed in the pre-gel solution at 25°C under magnetic stirring, overnight.
Antiviral activity of compound 2 on NL4.3 HIV strain was evaluated also in a gel formulation. To reproduce more physiological conditions, TZM-bl cells were seeded into transwells and the gel was applied onto the cell monolayer at 50% fixed concentration with serial drug dilutions as previously described. Briefly, 4x10^4 TZM-bl cells were plated into each transwell apical chamber of a 24-well plate (pore size 3μm and diameter 6,5 mm, Corning) containing medium in the bottom plate and cultured overnight. For efficacy testing, 60 TCID50 of virus was added to each apical well in the presence of 100 μL of compound 2 gel, tenofovir gel or blank gel at the final drug concentrations of 25μM, 10 μM and 5 μM. Inhibition of infection was determined as previously based on deviations from blank gel.

[7] = test system: recombinant HIV-1 integrase Q148H, G140S; experiment: Antiviral activity on human CD4+ T lymphocytes, integrase mutant Q148H, G140S; format: cell-based; conditions: Human immunodeficiency virus 1, read-out: Q148H, G140S EC50
[8] = Cytotoxicity on TZM-bl cells (XTT test); format: cell-based; conditions: human, read-out: Citotoxicity (TZM-bl cells) CC50
Method: as §4

[9] = test system: recombinant HIV-1 integrase Y143R; experiment: Antiviral activity on human CD4+ T lymphocytes, integrase mutant Y143R; format: cell-based; conditions: Human immunodeficiency virus 1, read-out: Y143R EC50
HIV-1 NL 4.3 WT = experiment: Antiviral activity on human CD4+ T lymphocytes, NL4.3 WT; format: cell-based; conditions: Human immunodeficiency virus 1, read-out: NL 4.3 WT EC50
Method: (§5) The antiviral activity and cytotoxicity of compounds 2, 9e and 9f was tested also on freshly purified human CD4^+ T lymphocytes obtained from healthy blood donors (informed consent available) as described previously on HIV laboratory strain NL4.3 and AD8 [33, 34].

HIV-1 AD8 WT = experiment: Antiviral activity on human CD4+ T lymphocytes, AD8 WT; format: cell-based; conditions: Human immunodeficiency virus 1, read-out: AD8 WT EC50
Method: as §5

Nc1nc2c(ncn2COCCO)c(=O)[nH]1 [ACV, Acyclovir, reference compound]
EC50 (HSV-1): 0.168 ± 0.0413 µM
CC50 ([1]; Citotoxicity (Vero cells) CC50): 732 ± 46.2 µM
CC50 ([1]; Vero cell CC50 (HSV-1)): 698 ± 72.5 µM
CC50 ([1]; Vero cell CC50 (HSV-2 acyclovir resistant rows)): 732 ± 46.2 µM
EC50 (HSV-2; Human alphaherpesvirus 2, plaque reduction, compound pre-incubated with virus 1 h at 37°C, read-out: HSV-2 EC50): 0.622 ± 0.0211 µM
SI (CC50/EC50), HSV-2 (HSV-2): 1177
EC50 [2]: 31.9 ± 1.16 µM

CC(=O)Nc1ccc(O)cc1 [Paracetamol]
Kd (HSA): 1280 ± 690 µM

maraviroc [reference compound]
EC50 ([3]; TZM-bl cells, pre-incubation in complete medium containing fetal bovine serum (FBS), read-out: NL4-3 EC50 a): > 20 µM
EC50 ([3]; TZM-bl cells, pre-incubation with virus without serum, read-out: NL4-3 EC50): > 20 µM
effect of FBS concentration on antiviral activity (HIV-1 AD8 [4]): did not change
alteration of antiviral activity when pre-incubated with serum ([5]; TZM-bl cells): did not show any alteration of antiviral activity
EC50 ([5]; TZM-bl cells, pre-incubation in complete medium containing fetal bovine serum (FBS), read-out: AD8 EC50 a): 0.0255 ± 0.003 µM
EC50 ([5]; TZM-bl cells, pre-incubation with virus without serum, read-out: AD8 EC50): 0.0367 ± 0.007 µM
influence of BSA on antiviral activity, any concentration of BSA (HIV-1 AD8 [6]): not influenced

C[C@H](Cn1cnc2c(N)ncnc21)OCP(=O)(O)O [tenofovir, reference compound]
EC50 (NL4.3 HIV strain): 4.5 µM

Cc1nnc(C(=O)NC(C)(C)c2nc(C(=O)NCc3ccc(F)cc3)c(O)c(=O)n2C)o1 [RAL, raltegravir, reference compound]
EC50 [7]: 0.8 ± 0.012 µM
CC50 [8]: > 20 µM
EC50 ([3]; Human immunodeficiency virus 1, NL43, TZM-bl, read-out: NL4-3 EC50): 0.021 ± 0.003 µM
EC50 [9]: 0.46 ± 0.01 µM
EC50 (HIV-1 NL 4.3 WT): 0.003 ± 0.002 µM
EC50 (HIV-1 AD8 WT): 0.002 ± 0.003 µM
EC50 ([5]; Human immunodeficiency virus 1, TZM-bl, read-out: AD8 EC50): 0.0065 ± 0.001 µM
EC50 ([5]; Human immunodeficiency virus 1, TZM-bl, read-out: AD8 EC50 a): 0.0135 ± 0.002 µM
alteration of antiviral activity when pre-incubated with serum ([5]; TZM-bl cells): did not show any alteration of antiviral activity
